Test results as given in the RepoRT retention time repository.

Assay: Waters ACQUITY UPLC BEH C18, 100 × 2.1 mm, 1.7 µm, 40 °C, 0.3 to 0.4 mL/min, estimated dead time 0.63 min; A: water + 0.1% formic acid; B: methanol + 0.1% formic acid; gradient (min/%B) 0/0.5 0.1/0.5 10/80 10.1/99.5 12/99.5
Details: stereoisomer not certain

| SMILES | LC retention time |
| --- | --- |
| COc1ccc2c(c1OC)C(=O)OC2C1c2cc3c(cc2CCN1C)OCO3 (centres undefined) | 4.21 min |
| CCCCCCCCCCCCCCC(O)C(O)C(N)CO (centres undefined) | 7.82 min |
| C[N+]1([O-])CCCC1c1cccnc1 (centres undefined) | 1.82 min |
| CC1=C(C)C(=O)OC(C(C)C2(O)CCC3C4C5OC5C5(O)CC=CC(=O)C5(C)C4CCC32C)C1 (centres undefined) | 6.82 min |
| CC1CCC2C(C)C3C(CC4C5CC=C6CC(OC7OC(CO)C(OC8OC(C)C(O)C(O)C8O)C(O)C7OC7OC(C)C(O)C(O)C7O)CCC6(C)C5CCC43C)N2C1 (centres undefined) | 5.01 min |
| CC(CSCC(NC(=O)CCC(N)C(=O)O)C(=O)NCC(=O)O)C(=O)O (centres undefined) | 2.36 min |
| CC(=O)OC1C(C)OC(OC2C(c3c(O)cc(O)c4c(=O)cc(-c5ccc(O)cc5)oc34)OC(CO)C(O)C2O)C(O)C1O (centres undefined) | 5.08 min |
| O=c1cc2oc(-c3ccc([O-])c(O)c3)c(OC3OC(CO)C(O)C(O)C3OC3OCC(O)C(O)C3O)cc-2c(O)c1 (centres undefined) | 2.88 min |
| Oc1ccc(CCc2cc(O)cc(O)c2)cc1 | 5.15 min |
| CCCC1CCCCN1 (centres undefined) | 2.78 min |
| O=c1cc(-c2ccc(O)cc2)oc2cc(OC3OC(CO)C(O)C(O)C3O)cc(O)c12 (centres undefined) | 4.18 min |
| COc1cc(O)c2c(=O)c(OC3OC(COC4OC(C)C(O)C(OC5OC(C)C(O)C(O)C5O)C4O)C(O)C(O)C3O)c(-c3ccc(O)c(O)c3)oc2c1 (centres undefined) | 4.79 min |
| C=CCc1ccc(O)c(-c2cc(CC=C)ccc2O)c1 | 9.21 min |
| O=C(C=Cc1ccc(O)cc1)NCCCCNCCCNC(=O)C=Cc1ccc(O)cc1 | 3.83 min |
| COc1c(O)cc2c(c1O)C1OC(CO)C(O)C(O)C1OC2=O (centres undefined) | 2.86 min |
| NC(=O)CCC(NC(=O)CCCc1ccccc1)C(=O)O (centres undefined) | 2.88 min |
| O=C(O)CC(O)(CC(=O)O)C(=O)O | 1.57 min |
| O=c1cc[nH]c2ccccc12 | 2.93 min |
| O=C(O)CC(=O)OCC1OC(Oc2c(-c3ccc(O)cc3)oc3cc(OC4OC(CO)C(O)C(O)C4O)cc(O)c3c2=O)C(O)C(O)C1O (centres undefined) | 3.36 min |
| CC1OC(Oc2cc(O)c3c(=O)c(OC4OC(C)C(O)C(O)C4O)c(-c4ccc(O)c(O)c4)oc3c2)C(O)C(O)C1O (centres undefined) | 3.67 min |

| SMILES | LC retention time |
| --- | --- |
| COc1ccc(C2CC(=O)c3c(O)cc(O)cc3O2)cc1O (centres undefined) | 6.04 min |
| CCC(C)C(N)C(=O)NC(C(=O)O)C(C)CC (centres undefined) | 3.05 min |
| CC1(C)CC(O)C2(C)CCC3(C)C(=CCC4C5(C)CCC(OC6OC(C(=O)O)C(O)C(O)C6OC6OC(CO)C(O)C(O)C6OC6OC(CO)C(O)C(O)C6O)C(C)(CO)C5CCC43C)C2C1 (centres undefined) | 6.97 min |
| CC(C)C(=O)OC(CC(=O)[O-])C[N+](C)(C)C (centres undefined) | 2.48 min |
| COc1c(OC2OC(CO)C(O)C(O)C2O)cc2oc(-c3ccc(O)c(O)c3)c(O)c(=O)c2c1O (centres undefined) | 4.58 min |
| CC(C)=CCc1c(O)cc(O)c(CC=C(C)C)c1CCc1ccc(O)c(O)c1 | 7.84 min |
| COc1cc(C=CC(=O)OC2C(OC3C(Oc4ccc(-c5cc(=O)c6c(O)cc(O)cc6o5)cc4)OC(C(=O)O)C(O)C3O)OC(C(=O)O)C(O)C2O)ccc1O (centres undefined) | 4.76 min |
| CCN1CC2(CO)CCC(OC)C34C5CC6C(OC)CC(O)(C5C6OC)C(O)(C(OC)C23)C14 (centres undefined) | 3.67 min |
| CC1CNC2(OC3CC4C5CCC6CC(OC7OC(CO)C(OC8OC(CO)C(O)C(O)C8OC8OC(CO)C(O)C(O)C8O)C(O)C7O)CCC6(C)C5CCC4(C)C3C2C)C(O)C1 (centres undefined) | 4.24 min |
| CCN1CC2(C)CCC(O)C34C5CC6C(OC)CC(O)(C(CC23)C14)C5C6O (centres undefined) | 2.89 min |
| O=C(O)c1cc(=O)c2ccccc2[nH]1 | 3.11 min |
| COc1cc(CC(CO)C(CO)Cc2ccc(O)c(OC)c2)ccc1O (centres undefined) | 4.76 min |
| O=C1OCC(Cc2cccc(O)c2)C1Cc1cccc(O)c1 (centres undefined) | 6.18 min |
| CC1(C)C=CC2(C)CCC3(C)C(=CCC4C5(C)CCC(O)C(C)(CO)C5CCC43C)C2C1 (centres undefined) | 10.4 min |
| CC(C)C(N)C(=O)NC(C(=O)O)C(C)C (centres undefined) | 2.15 min |
| CC(C)=CCCC(C)(OC1OC(CO)C(O)C(O)C1O)C1CCC2(C)C1C(O)CC1C3(C)CCC(O)C(C)(C)C3C(OC3OC(CO)C(O)C(O)C3OC3OC(C)C(O)C(O)C3O)CC12C (centres undefined) | 4.79 min |
| CC1CCC2(C(=O)O)CCC3(C)C(=CCC4C5(C)CC(O)C(O)C(C)(C)C5CCC43C)C2C1C (centres undefined) | 9.89 min |
| CC12CC3(O)OC(O1)C1(COC(=O)c4ccccc4)C3CC21OC1OC(CO)C(O)C(O)C1O (centres undefined) | 3.78 min |
| CC(C)=CCc1c(O)ccc(C(=O)C=Cc2ccc(O)cc2)c1O | 8.93 min |
| CC=C1CC(C)C(C)(O)C(=O)OCC2=CCN3CCC(OC1=O)C23 (centres undefined) | 3.8 min |

| SMILES | LC retention time |
| --- | --- |
| O=C(O)C1CCC(=O)N1CC1(O)OC(CO)C(O)C1O (centres undefined) | 1.77 min |
| CCC(C)C(N)C(=O)NC(CC(=O)O)C(=O)O (centres undefined) | 1.87 min |
| COc1ccc(CCC(=O)c2c(O)cc(OC3OC(CO)C(O)C(O)C3OC3OC(C)C(O)C(O)C3O)cc2O)cc1O (centres undefined) | 5.07 min |
| CC1(C)CC(O)C2(C)CCC3(C)C(=CCC4C5(C)CCC(OC6OC(C(=O)O)C(O)C(O)C6OC6OC(CO)C(O)C(O)C6OC6OCC(O)C(O)C6O)C(C)(CO)C5CCC43C)C2C1 (centres undefined) | 5.73 min |
| O=c1c(OC2OC(CO)C(O)C(O)C2O)c(-c2ccc(O)cc2)oc2cc(O)cc(O)c12 (centres undefined) | 4.37 min |
| COc1cc(-c2cc(=O)c3c(O)cc(OC4OC(COC(=O)CC(=O)O)C(O)C(O)C4O)cc3o2)cc(OC)c1O (centres undefined) | 4.91 min |
| CC1OC(OC2C(O)COC(OC3C(C)OC(OC4C(OC(=O)C56CCC(C)(C)CC5C5=CCC7C8(C)CCC(OC9OC(CO)C(O)C(O)C9O)C(C)(C)C8CCC7(C)C5(C)CC6O)OCC(O)C4O)C(O)C3O)C2O)C(O)C(O)C1O (centres undefined) | 6.12 min |
| COc1ccc2c(c1)OC(OC1OC(C(=O)O)C(O)C(O)C1O)C(O)N2 (centres undefined) | 2.19 min |
| O=C(CCc1ccc(O)cc1)c1c(O)c(C2OC(CO)C(O)C(O)C2O)c(O)c(C2OC(CO)C(O)C(O)C2O)c1O (centres undefined) | 4.01 min |
| CC(=O)OCC1OC(Oc2c(-c3ccc(O)c(O)c3)oc3cc(O)cc(O)c3c2=O)C(O)C(O)C1O (centres undefined) | 4.42 min |
| C=CC1C(OC2OC(CO)C(O)C(O)C2O)OC(O)=C2C(=O)N3CCc4c([nH]c5ccccc45)C3=CC21 (centres undefined) | 5.07 min |
| C=CC12CN(C)C3C4COC(CC41)C1(C(=O)N(OC)c4ccccc41)C32 (centres undefined) | 4.05 min |
| CSCC(NC(=O)CCC(NCC1(O)OCC(O)C(O)C1O)C(=O)O)C(=O)O (centres undefined) | 2.12 min |
| CC1CCC2(OC1O)OC1CC3C4CC=C5CC(OC6OC(CO)C(OC7OC(C)C(O)C(O)C7O)C(O)C6OC6OC(C)C(O)C(O)C6O)CCC5(C)C4CCC3(C)C1C2C (centres undefined) | 5.71 min |
| CCC=CCC1C(=O)C=CC1CCCCCCCC(=O)O (centres undefined) | 9.37 min |
| O=C(C=Cc1ccc(O)c(O)c1)OC(Cc1ccc(O)c(O)c1)C(=O)O (centres undefined) | 4.6 min |
| CC=CSSC=CC | 6.41 min |
| CC(C)=CCc1cc(C2COc3cc(O)c(CC=C(C)C)c(O)c3C2=O)ccc1O (centres undefined) | 9.45 min |
| CN1Cc2c(ccc3c2OCO3)C2C(O)Cc3cc4c(cc3C21)OCO4 (centres undefined) | 4.53 min |
